Converted amounts (≈) assume the structure as drawn.
Assays:
Assay type in all cases: physicochemical
[1] = Compaction properties / tabletability (Instron compaction, tensile strength); details: for Tensile: 300 mg compact
Protocol: The purpose of this study is to determine the compaction properties of certain solid forms of the present invention. The experimental compaction testing is evaluated on Instron Universal Testing System equipped with a 50 kN load cell using Natoli 10 mm flat round punches and die for material compression. The profiles are generated at 5, 10, and 15 kN with a target tablet weight of 300 mg for each compact. The three compacts are made at each pressure set point while the Instron is traveling at 50 mm/minute. The compacts final weight is measured on a balance. The tablet's diameter and thickness is measured using Mitutoyo Thickness Gauge and hardness testing is completed on a Vankel Hardness tester using axially breakage.

[2] = Hygroscopicity (moisture sorption analysis at 25° C.); details: for Hygroscopicity, weight increase: 25° C.
Protocol: The purpose of this assay is to determine the hygroscopicity of the solid forms of the present invention under conditions normally encountered in manufacturing and storage of drug products. Moisture analysis is performed at 25° C. using a TA instrument. The following experimental conditions are used: sample size ˜3-20 mg, dry sample at 0% RH until <0.0 weight change over 10 minutes, 5-95% RH adsorption/desorption range, and 5% RH step interval. The minimum equilibration criterion is <0.01% weight change for 5 minutes.

[3] = Equilibrium solubility of crystalline solid forms in simulated fluids (SGF, FaSSIF, FedSSIF); details: for solubility thermodynamic at 24 h: thermodynamic from solid, room temperature
Protocol: The purpose of this assay is to measure the solubility of certain solid forms of the present invention in comparison to 6,6-dimethyl-2-{2-[(1-methyl-1H-pyrazol-5-yl)amino]pyrimidin-4-yl}-5-[2-(morpholin-4-yl)ethyl]-5,6-dihydro-4H-thieno[2,3-c]pyrrol-4-one (free base). pKa Determination is performed using a UV-metric method. The sample is titrated in a fast-UV triple titration between pH 2-12 at a concentration of 31-19 μM under aqueous condition. Subsequently, the sample is titrated in three UV-metric titrations from pH 1.5-10 at a concentration of 30-27 μM with no precipitation and the observed pKa averages are reported.
To determine the solubility of the three different crystal forms, a single aliquot of the test media (2 mL, see table 4) is added to an accurately weighed sample. Samples are mixed at room temperature for a period of 24 hours. If a solution is observed, more crystalline material is added and the suspension is slurried for at least 2 hours, after which, an aliquot is withdrawn, filtered through a 0.45 μm PTFE filter and characterized by HPLC using the following HPLC conditions: Column Waters)(Bridge Phenyl, 4.6×100 mm, 3.5 μm, mobile phase A is 0.% NH4OH in water, mobile phase B is MeOH, diluent is 75% ACN and 25% water, gradient is 50% A at time 0, 25% A at time 10-13 minutes, and 50% A at time 13.1 to 18 minutes with a flow rate of 0.9 mL/minute, a column temperature of 35° C., UV at 225 nM, an injection volume of 5 and autosampler at ambient temperature. The remaining solids are air dried prior to analysis by XRPD. One replicate from each sample has triplicate HPLC analysis. pH Measurement of the solution is performed using calibrated scientific pH equipment. […] The equilibrium solubility in simulated intestinal fluids of the free base (assumed crystalline) compared to the crystalline methanesulfonic acid dihydrate salt (Example 2) and 4-methylbenzenesulfonic acid salt (Example 3), (assumed crystalline) are shown in Table 4.

[4] = Accelerated open-dish physical stability of prototype tablet (XRPD, HPLC)
Protocol: (§1) The purpose of this study is to evaluate the properties of certain solid forms of the present invention with respect to the suitability for manufacturing high drug load tablets. The API flowability is measured using a United States Pharmacopeia method for bulk/tapped density and a powder rheometer. The formula contains ˜64.6 wt % Example 2, 26.4 wt % microcrystalline cellulose (diluent/binder), 5 wt % croscarmellose sodium (disintegrant), 2 wt % sodium stearyl fumarate (lubricant), and 2 wt % silicone dioxide (glidant). The components are combined and tumble blended in a single step at a 40 g scale. The resulting blend is then tested using the same bulk/tapped density and powder rheometry tests. The blend is compressed on a single-station, instrumented tablet press. The accelerated studies are comprised of prototype tablets of methanesulfonic acid dihydrate (Example 2) at a 50% free base equivalence drug load. The tablets are prepared and stored in open-dish containers to evaluate stability. Samples are stored at 40° C./11% RH, 40° C./75% RH, 50° C./22% RH, and 50° C./50% RH. At designated time points the samples are characterized by XRPD for physical form and by HPLC using the following conditions: Column Zorbax Bonus-RP, 3.5-micron, 4.6×75 mm, mobile phase A is 0.1% TFA in water, mobile phase B is 0.1% TFA in ACN, gradient is 95% A at time 0 to 23% A at 9.5 minutes-12.1 minutes, 5% A at time 13-16 minutes, and 95% A at time 16.1 to 20 minutes with a flow rate of 1.5 mL/minute, a column temperature of 30° C., UV at 227 nM, an injection volume of 5 and autosampler at ambient temperature. The drug product formulation stress study under accelerated open dish conditions for methanesulfonic acid dihydrate (Example 2) is depicted in Table 5.

[5] = Formulation assessment: API powder flowability, compressibility, sticking; details: compared to the free base
Protocol: as §1

| Compound | Tensile ([1]; Pressure 64 MPa) | Tensile ([1]; Pressure 127 MPa) | Tensile ([1]; Pressure 191 MPa) | pH of the solution in solubility test ([3]; FaSSIF) | pH of the solution in solubility test ([3]; FedSSIF) | pH of the solution in solubility test ([3]; SGF) | solubility thermodynamic at 24 h ([3]; fessif, FedSSIF) | solubility thermodynamic at 24 h ([3]; simulated gastric fluid, SGF) | solubility thermodynamic at 24 h ([3]; FaSSIF) | Hygroscopicity, weight increase ([2]; 20% RH) | Hygroscopicity, weight increase ([2]; 60% RH) | further results |
| --- | --- | --- | --- | --- | --- | --- | --- | --- | --- | --- | --- | --- |
| CS(=O)(=O)O.Cn1nccc1Nc1nccc(-c2cc3c(s2)C(C)(C)N(CCN2CCOCC2)C3=O)n1 [Example 2, 6,6-Dimethyl-2-{2-[(1-methyl-1H-pyrazol-5-yl)amino]pyrimidin-4-yl}-5-[2-(morpholin-4-yl)ethyl]-5,6-dihydro-4H-thieno[2,3-c]pyrrol-4-one; methanesulfonic acid dihydrate] | 1.2034 MPa | 2.1532 MPa | 2.4082 MPa | 5.33 | 5.09 | 2.62 | > 20300 µg/mL | > 9700 µg/mL | > 19000 µg/mL |  |  | compaction properties compared with excipients ([1]; versus mannitol SD200 and Lactose Anhydrous): in range with excipients; hygroscopicity profile for drug product manufacturing processes [2]: preferred hygroscopicity profiles; Hygroscopicity, weight increase ([2]; 90% RH, dihydrate): <0.1 wt % increase; physical stability with respect to solution mediated form conversion ([3]; FaSSIF and FedSSIF): physically stable; solubility compared to the free base ([3]; FaSSIF and FedSSIF): higher solubility; Physical stability in prototype tablet ([4]; 40° C./11% RH, 7 days): Stable; Physical stability in prototype tablet ([4]; 40° C./11% RH, 14 days): Stable; Physical stability in prototype tablet ([4]; 40° C./75% RH, 7 days): Stable; Physical stability in prototype tablet ([4]; 40° C./75% RH, 14 days): Stable; Physical stability in prototype tablet ([4]; 40° C./75% RH, 30 days): Stable; Physical stability in prototype tablet ([4]; 50° C./22% RH, 7 days): Stable; Physical stability in prototype tablet ([4]; 50° C./22% RH, 14 days): Stable; Physical stability in prototype tablet ([4]; 50° C./22% RH, 30 days): Stable; Physical stability in prototype tablet ([4]; 50° C./50% RH, 7 days): Stable; Physical stability in prototype tablet ([4]; 50° C./50% RH, 14 days): Stable; Physical stability in prototype tablet ([4]; 50° C./50% RH, 30 days): Stable; compressibility [5]: improved; powder flowability [5]: improved; sticking to tableting tools [5]: reduced sticking |
| Cc1ccc(S(=O)(=O)O)cc1.Cn1nccc1Nc1nccc(-c2cc3c(s2)C(C)(C)N(CCN2CCOCC2)C3=O)n1 [Example 3, 6,6-Dimethyl-2-{2-[(1-methyl-1H-pyrazol-5-yl)amino]pyrimidin-4-yl}-5-[2-(morpholin-4-yl)ethyl]-5,6-dihydro-4H-thieno[2,3-c]pyrrol-4-one; 4-methylbenzenesulfonic acid] |  |  |  | 5.44 | 5.04 | 2.46 | 13500 µg/mL | 7080 µg/mL | 12200 µg/mL | <0.1 wt % | ~0.2 wt % | hygroscopicity profile for drug product manufacturing processes [2]: preferred hygroscopicity profiles; Hygroscopicity, weight increase ([2]; 90% RH): ~0.5 wt. % increase wt %; solubility compared to the free base ([3]; FaSSIF and FedSSIF): higher solubility |
| Cl.Cn1nccc1Nc1nccc(-c2cc3c(s2)C(C)(C)N(CCN2CCOCC2)C3=O)n1 [Example 4, 6,6-Dimethyl-2-{2-[(1-methyl-1H-pyrazol-5-yl)amino]pyrimidin-4-yl}-5-[2-(morpholin-4-yl)ethyl]-5,6-dihydro-4H-thieno[2,3-c]pyrrol-4-one; hydrochloride, reference compound] |  |  |  |  |  |  |  |  |  | ~0.4 wt. % wt % | ~6 wt % |  |
| OC[C@@H](O)[C@@H](O)[C@H](O)[C@H](O)CO [Mannitol SD200] | 0.4873 MPa | 1.1966 MPa | 2.1411 MPa |  |  |  |  |  |  |  |  |  |
| CS(=O)(=O)O.Cn1nccc1Nc1nccc(-c2cc3c(s2)C(C)(C)N(CCN2CCOCC2)C3=O)n1 [Example 1, 6,6-Dimethyl-2-{2-[(1-methyl-1H-pyrazol-5-yl)amino]pyrimidin-4-yl}-5-[2-(morpholin-4-yl)ethyl]-5,6-dihydro-4H-thieno[2,3-c]pyrrol-4-one; methanesulfonic acid] |  |  |  |  |  |  |  |  |  | <0.1 wt % | <0.1 wt % | Hygroscopicity, weight increase ([2]; 90% RH): ~4 wt % |
| Cn1nccc1Nc1nccc(-c2cc3c(s2)C(C)(C)N(CCN2CCOCC2)C3=O)n1 [Free base, 6,6-Dimethyl-2-{2-[(1-methyl-1H-pyrazol-5-yl)amino]pyrimidin-4-yl}-5-[2-(morpholin-4-yl)ethyl]-5,6-dihydro-4H-thieno[2,3-c]pyrrol-4-one, reference compound] | 0.5415 MPa | 1.0491 MPa | 1.6394 MPa | 6.70 | 5.36 | 5.05 | 5650 µg/mL (≈ 12.5 mM) | 3700 µg/mL (≈ 8.16 mM) | 130 µg/mL (≈ 0.287 mM) |  |  |  |
| OC[C@H]1O[C@@H](O[C@H]2[C@H](O)[C@@H](O)C(O)O[C@@H]2CO)[C@H](O)[C@@H](O)[C@H]1O (some centres unmarked) [Lactose Anhydrous] | 0.9687 MPa |  | 3.1671 MPa |  |  |  |  |  |  |  |  | Tensile ([1]; Pressure 128 MPa): 1.9119 MPa |
